Test results from patent publication US9422396B2, “Biodegradable elastomers prepared by the condensation of an organic di-, tri- or tetra-carboxylic acid and an organic diol” (QATAR UNIVERSITY, priority 2007, dated 2016).

Columns and labels:
[1] = In vitro hydrolytic degradation of poly(diol-tricarballylate) elastomers in PBS (pH 7.4); format: physicochemical
Description: In order to examine the influence of chain length on the degradation rate and the changes in the mechanical properties of the elastomer during the in vitro degradation, four different elastomers, based on varying chain lengths of alkylene diol (C6-C12), were prepared and tested. FIGS. 21a and 21b show the weight loss and water absorption data for the four prepared elastomers.
Young's modulus (E) and the ultimate tensile stress (σ) decreased in a nearly linear fashion with time as indicative of zero-order degradation mechanism. This linear decrease was observed regardless of the network compositions, the crosslinking density and the initial E and σ of the elastomers. […] No significant change in the ultimate elongation was found up to 12 weeks of the in vitro degradation time. […] It is only with surface erosion degradation pattern that the elastomers can maintain their mechanical properties unchanged^41. […] The above observations illustrates that the changes in the mechanical properties of these networks took place in two stages. The first stage was characterized by a rapid mechanical weakening (rapid decrease in E and a) which lasted for up to 4 weeks. […] This is in correlation with the trend noted for the weight loss and water absorption reported above (FIG. 21).
Through a linear regression of the zero-order degradation kinetics of the data in FIGS. 23a and 23b using equations (1) & (2), the rate constants were calculated and are listed in Table 1. Et=E0−KEt. (1) σt=σ0−Kσt. (2) In equations 1 & 2, t denoted the immersion time (in weeks) in PBS. The values of E0 and σ0 corresponded to the intercepts obtained from extrapolating the zero-order fitted line. Kσ and KE represented the zero-order degradation constants for […].

[2] = Stability of pilocarpine nitrate in the release medium; format: physicochemical; details: over a period of one week
Description: Before running the release studies, the stability of PCN in the release medium was tested by monitoring the changes in the concentration of a prepared stock solution of PCN in each of them over a period of one week.

Compound	KE (zero-order degradation constant, Young's modulus) [1]	Kσ (zero-order degradation constant, ultimate tensile stress) [1]	Change in concentration of stock solution in the release medium [2]
poly(1,8 octane diol-co-tricarballylate) [POTC]	0.0301 MPa/week	0.0124 MPa/week	
CC[C@@H]1C(=O)OC[C@@H]1Cc1cncn1C [PN, Pilocarpine Nitrate]			no significant changes from its initial concentration
poly(1,10 decane diol-co-tricarballylate) [PDTC]	0.0237 MPa/week	0.0114 MPa/week	
poly(1,12 dodecane diol-co-tricarballylate) [PDDTC]	0.0080 MPa/week	0.0018 MPa/week	
